The target in one test is T1, FLK-1 receptor (Mus musculus, UniProt P35918).
T1 construct: expressed in transfected cells; host or cells: NIH3T3 C7#3 cells
Kind of test: FLK-1 ELISA in FLK-1/NIH3T3 cells. Type of test: cell-based. (In general: An ELISA detects its analyte on a solid surface through an enzyme-linked reagent.)

Another test relates to 3T3/E/H+TGF-a(T) cells. Put plainly: 3T3/E/H+TGF-a(T) cell growth SRB assay. Conditions: SRB readout. Type of test: cell-based. A general note: The SRB assay estimates cell density from bound dye.
A further test relates to HUV-EC-C cells (VEGF). Put plainly: HUV-EC-C assay, [3H] thymidine incorporation, VEGF. Format: cell-based, human. As to conditions: Mitogenesis in endothelial cells. For orientation: Dividing cells build labelled thymidine or BrdU into new DNA.
The next test deals with HUV-EC-C cells (a-FGF). Put plainly: HUV-EC-C assay, [3H] thymidine incorporation, a-FGF. Format: cell-based, human. Conditions: Mitogenesis in endothelial cells. Here is the method:
The following protocol may also be used to measure the composition's activity: • Day 0 • 1. […] After cells have detached from the flask, add an equal volume of assay medium and transfer to a 50 ml sterile centrifuge tube (Fisher Scientific; catalogue no. 05-539-6). • 2. Wash the cells with about 35 ml assay medium in the 50 ml sterile centrifuge tube by adding the assay medium, centrifuge for 10 minutes at approximately 200×g, aspirate the supernatant, and resuspend with 35 ml D-PBS. Repeat the wash two more times with D-PBS, resuspend the cells in about 1 ml assay medium/15 cm^2 of tissue culture flask. Assay medium consists of F12K medium (Gibco BRL; catalogue no. 21127-014)+0.5% heat-inactivated fetal bovine serum. Count the cells with a Coulter Counter.RTM.v Coulter Electronics, Inc.) and add assay medium to the cells to obtain a concentration of 0.8-1.0×10^5 cells/ml. • 3. Add cells to 96-well flat-bottom plates at 100 μl/well or 0.8-1.0×10^4 cells/well; incubate about 24 h at 37° C., 5% CO2. Day 1 • 1. Make up two-fold drug titrations in separate 96-well plates, generally 50 μM on down to 0 μM. Use the same assay medium as mentioned in day 0, step 2 above. Titrations are made by adding […] of drug at 200 μM (4× the final well concentration) to the top well of a particular plate column. Since the stock drug concentration is usually 20 mM in DMSO, the 200 μM drug concentration contains 2% DMSO. Therefore, diluent made up to 2% DMSO in assay medium (F12K+0.5% fetal bovine serum) is used as diluent for the drug titrations in order to dilute the drug but keep the DMSO concentration constant. Add this diluent to the remaining wells in the column at 60 μl/well. Take 60 μl from the 120 μl of 200 μM drug dilution in the top well of the column and mix with the 60 μl in the second well of the column. Take 60 μl from this well and mix with the 60 μl in the third well of the column, and so on until two-fold titrations are completed. When the next-to-the-last well is mixed, take 60 μl of the 120 μl in this well and discard it. Leave the last well with 60 μl of DMSO/media diluent as a non-drug-containing control. Make 9 columns of titrated drug, enough for triplicate wells each for 1) VEGF (obtained from Pepro Tech Inc., catalogue no. 100-200, 2) endothelial cell growth factor (ECGF) (also known as acidic fibroblast growth factor, or aFGF) (obtained from Boehringer Mannheim Biochemica, catalogue no. 1439 600), and assay media control. ECGF comes as a preparation with sodium heparin. • 2. Transfer 50 μl/well of the drug dilutions to the 96-well assay plates containing the 0.8-1.0×10^4 cells/100 μl/well of the HUV-EC-C cells from day 0 and […] incubate ~2 h at 37° C., 5% CO2. • 3. In triplicate, add 50 μl/well of 80 ng/ml VEGF, 20 ng/ml ECGF, or media control to each drug condition. As with the drugs, the growth factor concentrations are 4× the desired final concentration. Use the assay media from day 0 step 2 to make the concentrations of growth factors. Incubate approximately 24 hours at 37° C., 5% CO2. Each well will have 50 μl drug dilution, 50 μl growth factor or media, and 100 ul cells,=200 ul/well total. Thus the 4× concentrations of drugs and growth factors become 1× once everything has been added to the wells. Day 2 • 1. Add ^3H-thymidine (Amersham; catalogue no. TRK-686) at 1 μCi/well (10 μl/well of 100 μCi/ml solution made up in RPMI media+10% heat-inactivated fetal bovine serum) and incubate about 24 h at 37° C., 5% CO2. • Note: ^3H-thymidine is made up in RPMI media because all of the other applications for which we use the ^3H-thymidine involve experiments done in RPMI. The media difference at this step is probably not significant. RPMI was obtained from Gibco BRL, catalogue no. 11875-051. Day 3 • 1. Freeze plates overnight at −20° C. Day 4 • 1. […]

In test [1] the test system is PDGFR. Kind of test: PDGF-induced BrdU incorporation assay in 3T3/EGFR cells. As to conditions: Mitogenesis in 3T3/EGFR cells, read-out: PDGFR PDGF Ligand IC50. Format: cell-based.
Experimental: Protocol • (1) 3T3 engineered cell line: 3T3/EGFRc7. • (2) Cells are seeded at 8000 cells/well in DMEM, 10% CS, 2 mM Gin in a 96 well plate. […] The negative control wells receive serum free DMEM with 0.1% BSA only; the positive control cells receive the ligand (PDGF) but no test compound. […] FixDenat solution is added (50 μl/well) and the plates are incubated at room temperature for 45 minutes on a plate shaker. • (7) The FixDenat solution is thoroughly removed by decanting and tapping the inverted plate on a paper towel. Milk is added (5% dehydrated milk in PBS, 200 μl/well) as a blocking solution and the plate is incubated for 30 minutes at room temperature on a plate shaker. • (8) The blocking solution is removed by decanting and the wells are washed once with PBS. Anti-BrdU-POD solution (1:100 dilution in PBS, 1% BSA) is added (100 μl/well) and the plate is incubated for 90 minutes at room temperature on a plate shaker. • (9) The antibody conjugate is thoroughly removed by decanting and rinsing the wells 5 times with PBS, and the plate is dried by inverting and tapping on a paper towel. • (10) TMB substrate solution is added (100 μl/well) and incubated for 20 minutes at room temperature on a plate shaker until color development is sufficient for photometric detection. • (11) The absorbance of the samples is measured at 410 nm (in “dual wavelength” mode with a filter reading at 490 nm, as a reference wavelength) on a Dynatech ELISA plate reader.
For another test, the target named is FGFR (Mus musculus, UniProt P16092). Kind of test: FGF ligand BrdU incorporation in 3T3/EGFR cells. Conditions: Mitogenesis in 3T3/EGFR cells. Format: cell-based.
Sequence of FGFR (P16092 22-822, change not shown): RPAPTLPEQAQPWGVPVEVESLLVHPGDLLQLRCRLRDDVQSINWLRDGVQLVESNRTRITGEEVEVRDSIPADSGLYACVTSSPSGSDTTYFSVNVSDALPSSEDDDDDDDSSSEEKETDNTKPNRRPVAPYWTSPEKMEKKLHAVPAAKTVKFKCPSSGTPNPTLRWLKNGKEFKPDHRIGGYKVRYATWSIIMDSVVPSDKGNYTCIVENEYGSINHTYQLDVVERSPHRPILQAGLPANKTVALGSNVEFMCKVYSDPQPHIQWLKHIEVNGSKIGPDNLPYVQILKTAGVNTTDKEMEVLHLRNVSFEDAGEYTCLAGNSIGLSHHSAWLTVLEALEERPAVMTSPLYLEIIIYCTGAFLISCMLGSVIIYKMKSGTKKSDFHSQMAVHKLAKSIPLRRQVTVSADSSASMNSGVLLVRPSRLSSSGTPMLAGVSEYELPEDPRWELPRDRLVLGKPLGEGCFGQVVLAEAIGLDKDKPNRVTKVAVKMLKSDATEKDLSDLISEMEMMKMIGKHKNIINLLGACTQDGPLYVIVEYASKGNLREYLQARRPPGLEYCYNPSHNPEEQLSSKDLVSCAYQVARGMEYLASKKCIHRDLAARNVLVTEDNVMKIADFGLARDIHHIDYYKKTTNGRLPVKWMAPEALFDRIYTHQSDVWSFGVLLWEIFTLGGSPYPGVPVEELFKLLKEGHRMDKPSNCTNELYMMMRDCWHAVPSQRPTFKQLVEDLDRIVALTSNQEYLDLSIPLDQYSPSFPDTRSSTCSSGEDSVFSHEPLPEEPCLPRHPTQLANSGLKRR
The target of test [2] is PDGFR (Homo sapiens, UniProt P09619). Put plainly: PDGF-R ELISA.
Sequence of PDGFR (Homo sapiens, UniProt P09619) (P09619 33-1106): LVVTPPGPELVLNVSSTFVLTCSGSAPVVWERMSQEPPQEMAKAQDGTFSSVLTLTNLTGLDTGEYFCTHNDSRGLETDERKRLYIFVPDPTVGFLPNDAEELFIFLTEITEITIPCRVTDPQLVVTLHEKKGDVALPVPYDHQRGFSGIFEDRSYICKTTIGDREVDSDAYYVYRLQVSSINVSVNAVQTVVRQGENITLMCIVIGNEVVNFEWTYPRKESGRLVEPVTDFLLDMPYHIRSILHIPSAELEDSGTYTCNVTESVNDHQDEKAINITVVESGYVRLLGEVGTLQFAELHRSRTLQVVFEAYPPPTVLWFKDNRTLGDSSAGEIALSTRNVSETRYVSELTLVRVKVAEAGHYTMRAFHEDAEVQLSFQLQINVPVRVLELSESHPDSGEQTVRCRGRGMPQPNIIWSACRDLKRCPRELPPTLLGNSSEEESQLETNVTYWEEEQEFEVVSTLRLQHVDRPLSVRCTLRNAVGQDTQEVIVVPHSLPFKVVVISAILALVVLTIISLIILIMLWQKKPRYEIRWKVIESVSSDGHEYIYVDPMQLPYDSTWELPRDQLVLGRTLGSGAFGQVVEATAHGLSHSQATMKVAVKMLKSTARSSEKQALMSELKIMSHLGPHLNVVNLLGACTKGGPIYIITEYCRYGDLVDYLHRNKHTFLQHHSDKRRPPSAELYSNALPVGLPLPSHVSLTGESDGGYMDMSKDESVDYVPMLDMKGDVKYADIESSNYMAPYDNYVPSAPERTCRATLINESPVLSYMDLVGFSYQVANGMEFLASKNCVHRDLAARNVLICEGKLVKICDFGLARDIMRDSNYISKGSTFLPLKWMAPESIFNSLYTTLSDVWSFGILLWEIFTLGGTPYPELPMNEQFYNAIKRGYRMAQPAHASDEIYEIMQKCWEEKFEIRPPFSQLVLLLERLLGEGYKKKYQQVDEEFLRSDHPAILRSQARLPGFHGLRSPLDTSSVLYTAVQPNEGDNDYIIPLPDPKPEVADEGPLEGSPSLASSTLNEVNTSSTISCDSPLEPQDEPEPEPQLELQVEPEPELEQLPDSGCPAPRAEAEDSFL
Experimental: All cell culture media, glutamine, and fetal bovine serum were purchased from Gibco Life Technologies (Grand Island, N.Y.) unless otherwise specified. […] All cell lines were routinely subcultured twice a week and were negative for mycoplasma as determined by the Mycotect method (Gibco).
For ELISA assays, cells (U1242, obtained from Joseph Schlessinger, NYU) were grown to 80-90% confluency in growth medium (MEM with 10% FBS, NEAA, 1 mM NaPyr and 2 mM GLN) and seeded in 96-well tissue culture plates in 0.5% serum at 25,000 to 30,000 cells per well. […] Lysates were incubated with shaking for 1 hour at room temperature. The plates were washed with TBST four times and then incubated with polyclonal anti-phosphotyrosine antibody at room temperature for 30 minutes. Excess anti-phosphotyrosine antibody was removed by rinsing the plate with TBST four times. Goat anti-rabbit IgG antibody was added to the ELISA plate for 30 min at room temperature followed by rinsing with TBST four more times. […] Absorbance at 410 nm with a reference wavelength of 630 nm was recorded about 15 to 30 min after ABTS addition.
The subject of another test is 3T3/PDGFR+PDGF(T) cells. Put plainly: 3T3/PDGF-βR/PDGF-BB(T) cell growth SRB assay. Type of test: cell-based. As to conditions: tumor-derived, SRB readout. The protocol: Cell Line and Growth Medium:
• 3T3/PDGF-βR/PDGF-BB(T) (NIH 3T3 clone 7 cells expressing PDGFβ-receptor and PDGF-BB, from tumors resected from athymic mice) 2% calf serum/DMEM+2 mM glutamine Protocol: Day 0: Cell Plating: • This part of assay is carried out in a laminar flow hood. • 1. Trypsinize cells as usual. Transfer 200 μl of cell suspension to 10 ml of isotone. Count cells on the Coulter Counter. • 2. Dilute cells in growth medium to 60,000 cells/ml. Transfer 100 μl of cells to each well in a 96-well flat bottom plate to give 6000 cells/well. • 3. Allow half of plate (4 rows) for each compound and quadruplicate wells for each compound concentration, a set of 4 wells for medium control and 4 wells for DMSO control. • 4. Gently shake plates to allow for uniform attachment of the cells to the plate. • 5. Incubate the plates at 37° C. in a 10% CO2 incubator. • Day 1: Addition of Compound: same as for Assay 1. • Day 5: Development of Assay: same as for Assay 1.
3T3/E/H+TGF-α(T): NIH 3T3 cells expressing EGFR/HER2 chimera and TGF-α, tumor-derived 3T3/EGFR+TGF-α(T): NIH 3T3 cells expressing EGFR and TGF-α, tumor-derived 3T3/PDGFR+PDGF(T): NIH 3T3 cells expressing PDGF-βR and PDGF-ββ, tumor-derived SMC: human smooth muscle cells from Clonetics

For 17 molecules, IC50 results are on record in patent publication US20060252766A1, “Methods using a combination of 3-heteroaryl-2-indolinone and a cyclooxygenase-2 inhibitor for the treatment of neoplasia” (PFIZER INC, priority 2002, published 2006).

T1 sequence (P35918 20-1345): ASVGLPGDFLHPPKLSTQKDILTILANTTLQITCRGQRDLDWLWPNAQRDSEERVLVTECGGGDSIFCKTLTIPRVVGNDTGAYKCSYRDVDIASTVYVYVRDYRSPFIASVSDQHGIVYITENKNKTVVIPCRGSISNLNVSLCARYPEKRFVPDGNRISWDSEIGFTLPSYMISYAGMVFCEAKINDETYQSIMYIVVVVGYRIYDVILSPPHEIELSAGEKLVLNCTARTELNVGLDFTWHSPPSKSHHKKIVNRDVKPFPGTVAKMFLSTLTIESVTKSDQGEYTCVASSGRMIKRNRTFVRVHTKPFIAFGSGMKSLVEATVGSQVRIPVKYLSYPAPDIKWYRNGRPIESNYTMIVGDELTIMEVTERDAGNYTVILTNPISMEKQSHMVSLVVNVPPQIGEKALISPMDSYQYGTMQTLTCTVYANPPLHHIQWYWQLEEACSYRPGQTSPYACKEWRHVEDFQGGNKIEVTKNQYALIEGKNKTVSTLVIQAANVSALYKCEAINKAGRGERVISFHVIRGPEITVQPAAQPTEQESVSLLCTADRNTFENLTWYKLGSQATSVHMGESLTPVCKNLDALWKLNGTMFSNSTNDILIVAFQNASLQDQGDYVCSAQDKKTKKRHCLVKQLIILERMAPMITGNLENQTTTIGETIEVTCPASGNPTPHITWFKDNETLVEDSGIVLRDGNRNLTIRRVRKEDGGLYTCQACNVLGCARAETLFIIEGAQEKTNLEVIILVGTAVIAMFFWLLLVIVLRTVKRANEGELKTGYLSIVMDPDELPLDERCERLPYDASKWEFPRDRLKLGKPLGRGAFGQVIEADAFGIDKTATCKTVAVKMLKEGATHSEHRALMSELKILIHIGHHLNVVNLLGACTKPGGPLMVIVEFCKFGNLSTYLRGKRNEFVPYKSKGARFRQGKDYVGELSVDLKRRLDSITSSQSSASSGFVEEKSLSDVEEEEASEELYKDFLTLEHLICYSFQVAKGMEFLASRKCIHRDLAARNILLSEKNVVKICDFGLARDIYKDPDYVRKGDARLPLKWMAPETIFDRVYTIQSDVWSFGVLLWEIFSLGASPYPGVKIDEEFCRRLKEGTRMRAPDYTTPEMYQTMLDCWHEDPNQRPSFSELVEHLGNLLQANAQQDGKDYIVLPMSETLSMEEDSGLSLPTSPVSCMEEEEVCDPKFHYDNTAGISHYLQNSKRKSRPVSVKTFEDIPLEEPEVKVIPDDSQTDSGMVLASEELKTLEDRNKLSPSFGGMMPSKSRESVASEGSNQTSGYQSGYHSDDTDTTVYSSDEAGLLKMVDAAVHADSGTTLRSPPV
Experimental for 3T3/E/H+TGF-a(T) cells: The SRB assays may be used to measure the effects of substances or cell growth. The assays are carried out as follows:
Trypsinize cells as usual. Transfer 100 μl of cell suspension to 10 ml of isotone. Count cells with the Coulter Counter. • 2. Dilute cells in growth medium to 60,000 cells/ml. Transfer 100 μl of cells to each well in a 96-well flat bottom plate to give 6000 cells/well. • 3. […] Gently shake plates to allow for uniform attachment of the cells. • 5. Incubate the plates at 37° C. in a 10% CO2 incubator. Day 1: Addition of Compound: • This part of assay is carried out in a laminar flow hood. • 1. In 96 well-round bottom plate, add 125 μl of growth medium to columns 3-11. […] At this dilution, the concentration of DMSO is 0.4% for a 2× solution or 0.2% for 1× solution on the cells. […] Transfer the 2× starting compound solution to quadruplicate wells in column 12 of the 96-well round bottom plate. Do 1:2 serial dilutions across the plate from right to left by transferring 125 μl from column 12 to column 11, column 11 to 10 and so on. Transfer 100 μl of compound dilutions onto 100 μl medium on cells in corresponding wells of 96-well flat bottom plate. Total volume per well should be 200 μl. • 4. For vehicle control, prepare a 2× solution of DMSO at 0.4% DMSO in growth medium. […] Read plates on Dynatech ELISA Plate Reader at 570 nm with reference at 630 nm. […]
Experimental for FLK-1 receptor: An ELISA assay was conducted to measure the kinase activity of the FLK-1 receptor and more specifically, the inhibition or activation of protein tyrosine kinase activity on the FLK-1 receptor. Specifically, the following assay was conducted to measure kinase activity of the FLK-1 receptor in FLK-1/NIH3T3 cells.
Coat Corning 96-well elisa plates with 1.0 μg per well Cappel Anti-rabbit IgG antibody in 0.1M Na2 CO3 pH 9.6. Bring final volume to 150 μl per well. Coat plates overnight at 4° C. Plates can be kept up to two weeks when stored at 4° C. • 2. Grow cells in Growth media(DMEM, supplemental with 2.0 mM L-Glutamine, 10% FBS) in suitable culture dishes until confluent at 37° C., 5% CO2. • 3. […] Grow cells at least one day at 37° C., 5% CO2. • 5. Wash cells with D-PBS 1×. • 6. Add 200 μl/well of starvation media (DMEM, 2.0 mM I-Glutamine, 0.1% FBS). Incubate overnight at 37° C., 5% CO2. • 7. Dilute Compounds/Extracts 1:20 in polypropylene 96 well plates using starvation media. Dilute dimethylsulfoxide 1:20 for use in control wells. • 8. Remove starvation media from 96 well cell culture plates and add 162 μl of fresh starvation media to each well. • 9. Add 18 μl of 1:20 diluted Compound/Extract dilution (from step 7) to each well plus the 1:20 dimethylsulfoxide dilution to the control wells (+/−VEGF), for a final dilution of 1:200 after cell stimulation. Final dimethylsulfoxide is 0.5%. […]
Experimental for HUV-EC-C cells (VEGF): Repeat the wash two more times with D-PBS, resuspend the cells in about 1 ml assay medium/15 cm^2 of tissue culture flask. […] Add cells to 96-well flat-bottom plates at 100 μl/well or 0.8-1.0×10^4 cells/well; incubate about 24 h at 37° C., 5% CO2. Day 1 • 1. […] Use the same assay medium as mentioned in day 0, step 2 above. Titrations are made by adding 90 μl/well of drug at 200 μM (4× the final well concentration) to the top well of a particular plate column. Since the stock drug concentration is usually 20 mM in DMSO, the 200 μM drug concentration contains 2% DMSO. Therefore, diluent made up to 2% DMSO in assay medium (F12K+0.5% fetal bovine serum) is used as diluent for the drug titrations in order to dilute the drug but keep the DMSO concentration constant. Add this diluent to the remaining wells in the column at 60 μl/well. Take 60 μl from the 120 μl of 200 μM drug dilution in the top well of the column and mix with the 60 μl in the second well of the column. Take 60 μl from this well and mix with the 60 μl in the third well of the column, and so on until two-fold titrations are completed. When the next-to-the-last well is mixed, take 60 μl of the 120 μl in this well and discard it. Leave the last well with 60 μl of DMSO/media diluent as a non-drug-containing control. Make 9 columns of titrated drug, enough for triplicate wells each for 1) VEGF (obtained from Pepro Tech Inc., catalogue no. 100-200, 2) endothelial cell growth factor (ECGF) (also known as acidic fibroblast growth factor, or aFGF) (obtained from Boehringer Mannheim Biochemica, catalogue no. […] ECGF comes as a preparation with sodium heparin. • 2. Transfer 50 μl/well of the drug dilutions to the 96-well assay plates containing the 0.8-1.0×10^4 cells/100 μl/well of the HUV-EC-C cells from day 0 and 20 incubate ~2 h at 37° C., 5% CO2. • 3. In triplicate, add 50 μl/well of 80 ng/ml VEGF, 20 ng/ml ECGF, or media control to each drug condition. As with the drugs, the growth factor concentrations are 4× the desired final concentration. Use the assay media from day 0 step 2 to make the concentrations of growth factors. […] Day 2 • 1. […] Day 3 • 1.

“3-[(2-Sulphonylfuran-5-yl)methylene]-2-indolinone sodium salt [SU5428]”: at FLK-1 receptor, the midpoint of inhibition, the IC50, lay at 8.6 µM.
As for `CN(C)c1ccc(C=C2C(=O)Nc3ccccc32)cc1` [SU4312, 3-(4-Dimethylaminobenzylidenyl)-2-indolinone], in the test on 3T3/E/H+TGF-a(T) cells, half-maximal inhibition (IC50) was put at 36 µM.
With `COc1ccc(OC)c(C=C2C(=O)Nc3ccccc32)c1` [SU4793, 3-(2,5-Dimethoxybenzylidenyl)-2-indolinone], the values for the IC50 in the test on HUV-EC-C cells (VEGF) and with HUV-EC-C cells (a-FGF) were 6.6 µM and 3.4 µM, respectively.
On the same counts, the results for `COc1cccc(C=C2C(=O)Nc3ccccc32)c1OC` [SU4794, 3-(2,3-dimethoxybenzylidenyl)-2-indolinone] are 4.8 µM and 35.7 µM.
For the molecule `CC(=O)Nc1ccc(C=C2C(=O)Nc3ccccc32)cc1` [SU4799, 3-(4-acetamidobenzylidenyl)-2-indolinone], the IC50 (usually the midpoint of a concentration-inhibition curve) with HUV-EC-C cells (VEGF) was determined as 19.9 µM.
On to `O=C1Nc2ccccc2C1=Cc1ccc(O)cc1Cl` [SU4932, 3-(2-chloro-4-hydroxybenzylidenyl)-2-indolinone], for which the half-maximal inhibitory concentration (IC50) with HUV-EC-C cells (VEGF) turned out to be 2.5 µM; in the test on HUV-EC-C cells (a-FGF) it was 45.2 µM.
Turning to `CN(C)c1ccc(C=C2C(=O)N(C)c3ccccc32)cc1` [SU4952, 3-(4-Dimethylaminobenzylidenyl)-1-methyl-2-indolinone], the half-maximal inhibitory concentration (IC50) is 25.6 µM in the test with HUV-EC-C cells (VEGF) and 19.3 µM with HUV-EC-C cells (a-FGF).
On the same counts, the results for `CN1C(=O)C(=Cc2ccc(Br)cc2)c2ccccc21` [SU4956, 3-(4-Bromobenzylidenyl)-1-methyl-2-indolinone] are 8 µM and 13 µM.
Take `CN(C)c1ccc(C=C2C(=O)Nc3ccc(Cl)cc32)cc1` [SU4967, 5-Chloro-3-(4-dimethylaminobenzylidenyl)-2-indolinone]: the values for the IC50 in the test with PDGFR [1], against FGFR and against PDGFR [2] were 9 µM, 4.9 µM and 7.9 µM, respectively.
`O=C1Nc2ccccc2C1=Cc1ccc(N2CCOCC2)cc1` [SU4981, 3-[4-(Morpholin-4-yl)benzylidenyl]-2-indolinone]: the half-inhibitory concentration (IC50) with PDGFR [1] was 3 µM; at FGFR, 10 µM; on PDGFR [2] it was 33.1 µM.
With `CN1C(=O)C(=Cc2ccc(N3CCOCC3)cc2)c2ccccc21` [SU4982, 1-Methyl-3-[4-(morpholin-4-yl)benzylidenyl]-2-indolinone], the IC50 was 46.1 µM with HUV-EC-C cells (VEGF) and 27.3 µM in the test on HUV-EC-C cells (a-FGF).
Turning to `O=CN1CCN(c2ccc(C=C3C(=O)Nc4ccccc43)cc2)CC1` [SU4984, 3-[4-(4-Formylpiperazin-1-yl)benzylidenyl]-2-indolinone], the concentration for half-maximal inhibition (IC50) amounted to 22.2 µM in the test on 3T3/PDGFR+PDGF(T) cells and 5.8 µM against PDGFR [2].
Consider `Cc1cc[nH]c1C=C1C(=O)Nc2ccccc21` [SU5404, 3-[(3-Methylpyrrol-2-yl)methylene]-2-indolinone], for which the IC50 in the test with PDGFR [1] stood at 3 µM; against FGFR it was 25 µM; on PDGFR [2], 17 µM.
For the molecule `CCc1c(C=C2C(=O)Nc3ccccc32)[nH]c(C)c1C` [SU5453, 3-[(4,5-Dimethyl-3-ethylpyrrol-2-yl)methylene]-2-indolinone], the half-maximal inhibitory concentration (IC50) on PDGFR [2] came out at 65.5 µM.
In the case of `O=C1Nc2ccccc2C1=Cc1ccc(N2CCCC2)cc1` [SU5466, 3-[4-(Pyrrolidin-1-yl)benzylidenyl]-2-indolinone], the IC50 with PDGFR [1] was 18 µM; against FGFR it was 15 µM; against PDGFR [2], 86 µM.
With `Cc1cnc(C=C2C(=O)Nc3ccccc32)[nH]1` [SU5468, 3-[(5-Methylimidazol-2-yl)methylene]-2-indolinone], the half-maximal inhibitory concentration (IC50) in the test with PDGFR [1] came out at 8 µM; at PDGFR [2], 55.9 µM.
In the case of `O=C1Nc2ccccc2C1=Cc1c[nH]cn1` [SU5473, 3-[(Imidazol-4-yl)methylene]-2-indolinone], the IC50 is 1.2 µM in the test on HUV-EC-C cells (VEGF) (Homo sapiens, HUVEC); 14.1 µM in the test with HUV-EC-C cells (a-FGF) (Homo sapiens, HUVEC); 4 µM in the test on PDGFR [1]; 50 µM at FGFR; 14.2 µM on PDGFR [2].
